Patent US20230220313A1, “COMPOSITION AND METHOD FOR INACTIVATING A VIRUS” (RNASSIST LIMITED, priority 2020, published 2023)
Counter-ions that a name gives are not always drawn.

Legend:
SARS-CoV-2 = conditions: Welch et al (2020) J. Clin. Microbiology; cited from earlier work
[1] = Viscosity by falling ball method; assay type: physicochemical; conditions: falling ball method at 20° C.

Compound	inactivation of SARS-CoV-2 (SARS-CoV-2)	viscosity [1] [cP]
N=C(N)N [Guanidine HCl]	not completely inactivated	–
N#CS.N=C(N)N [Guanidine thiocyanate]	not completely inactivated	–
CCCCCCCCCCCCOS(=O)(=O)[O-].[Na+] [SDS]	not completely inactivated	–
COCCOCCOCCOCCOC [Tetraethylene glycol dimethyl ether]	–	3.3
COCCOCCOCCOCCO [Tetraethylene glycol monomethyl ether]	–	12
Triton X-100	not completely inactivated	–
